These are literature values, as cited in patent publication US12109304B1, “Oral patch for treating mouth ulcers” (Xiamen LP Pharmaceutical Co., Ltd., priority 2023, dated 2024).

On to `CCCCNc1ccc(C(=O)OCCN(C)C)cc1.Cl` [Tetracaine hydrochloride], for which the “Solubility in ethanol / alcohol” value (ethanol (alcohol)) is “soluble”. In addition, the Solubility in water entry (water) is listed as “soluble”.
